Earlier results on one compound are cited in US20070082912A1, “Pyrrole compounds for the treatment of prostaglandine mediated diseases” (priority 2002, published 2007).

SMILES strings stand for the structures.

Series [1] deals with rat model of chronic constriction injury. Conditions: Anesthesia and Analgesia 2001, 93, 1012-7.
Series [2] deals with rodent model of post-operative pain. Conditions: Anesthesia and Analgesia 2001, 92, 233-238.

Take `Cc1cc(Cl)ccc1S(=O)(=O)NC[C@H]1C2CCC(CC2)[C@@H]1/C=C\CCCC(=O)O` [ONO-871 1]: the hyperalgesia and allodynia entry in series [1] was “reduces hyperalgesia and allodynia”. In addition, the mechanical hyperalgesia result in series [2] is “inhibits mechanical hyperalgesia”.
